The results in this text go back to ChEMBL document CHEMBL3621176, “Inhibitors of the Renal Outer Medullary Potassium Channel” (ACS Med Chem Lett, 2015).

Molecules are shown by their SMILES.

This test concerns the target T1, ATP-sensitive inward rectifier potassium channel 1 (Homo sapiens, UniProt P48048).
T1 sequence (P48048 whole entry): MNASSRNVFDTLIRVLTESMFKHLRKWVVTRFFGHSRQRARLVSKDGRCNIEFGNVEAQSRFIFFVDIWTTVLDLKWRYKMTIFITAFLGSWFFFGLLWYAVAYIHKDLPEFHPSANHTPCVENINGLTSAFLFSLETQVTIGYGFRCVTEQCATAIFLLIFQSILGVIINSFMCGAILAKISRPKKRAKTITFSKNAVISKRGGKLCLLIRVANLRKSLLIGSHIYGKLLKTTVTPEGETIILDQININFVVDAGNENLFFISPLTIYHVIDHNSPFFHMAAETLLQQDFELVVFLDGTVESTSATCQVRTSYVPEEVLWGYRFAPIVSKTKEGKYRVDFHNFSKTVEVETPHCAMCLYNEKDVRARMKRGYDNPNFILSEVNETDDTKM
Put plainly: Inhibition of human Kir1.1 expressed in HEK293 cells by thallium flux assay. The test is classed as cell-based.
A word on the IC50: it is the concentration at which inhibition is half-maximal. The low end stands for greater potency, the high end for weaker potency. In turn, `Cc1nc(N2CCC3(CCN(C[C@H](O)c4ccc5c(c4C)COC5=O)CC3)C2)ccc1C#N` showed an IC50 of 14 nM. That is a double-digit nanomolar value.
The value for `Cc1cc(N2CCC3(CCN(C[C@H](O)c4ccc5c(c4C)COC5=O)CC3)C2)ncc1C#N` was 17 nM; that for `Cc1cc(C#N)cnc1N1CCC2(CCN(C[C@H](O)c3ccc4c(c3C)COC4=O)CC2)C1` was 20 nM; that for `Cc1c([C@@H](O)CN2CCC3(CC2)CCN(c2ccc(C#N)cc2)C3)ccc2c1COC2=O` was 15 nM.
`Cc1c([C@@H](N)CN2CCC3(CC2)CC(=O)N(c2ccc(C#N)cn2)C3)ccc2c1COC2=O`: the IC50 amounted to 14 nM.
As for `Cc1c([C@@H](O)CN2CCC3(CC2)CCN(c2ncc(C#N)cn2)CC3)ccc2c1COC2=O`, the figure is 14 nM.
The value for `Cc1c([C@@H](O)CN2CCC3(CC2)CCN(c2cnc(C#N)cn2)CC3)ccc2c1COC2=O` was 9 nM.
The value for `Cc1c([C@@H](O)CN2CCC3(CC2)CCN(c2ccc(C#N)nn2)CC3)ccc2c1COC2=O` was 13 nM.
